# From patent US20230057602A1, “METHODS OF TREATMENT WITH ANTIBODIES AGAINST BCMA AND CD3” (BRISTOL-MYERS SQUIBB COMPANY, priority 2019, published 2023)
# Key:
# Format in all cases: cell-based, human
# [1] = tested on: MM1S BCMA-expressing myeloma cell line co-cultured with T-cells; assay: CC-93269-induced cytokine secretion, T-cell co-culture with MM1S; settings: 1 μM DEX vs DMSO control, highest concentration of CC-93269, 72 hours, 3 donors
# [2] = tested on: BCMA-expressing tumour cell lines co-cultured with T-cells; assay: CC-93269-mediated cytokine release across the four co-cultures; settings: 1 μM DEX vs DMSO control, highest concentration of CC-93269
# BCMA+ tumour cell lines = assay: CC-93269-induced redirected lysis of BCMA+ tumour cell lines (overall); settings: co-treatment with CC-93269
# Procedure: The cocultures were incubated at 37° C. with 5% CO2. After 72 hours of incubation, culture supernatants were harvested and stored at −80° C. The cells were labeled with Live/Dead Fixable Aqua Dead Cell Stain, according to the manufacturer's instructions for 30 minutes at RT. Subsequently, cells were stained with antibodies against the following cell surface markers: CD2, CD3, CD4, CD8, CD69, CD25, HLA-DR, and CD154 in a final volume of 50 μL of flow staining buffer. After staining for cell surface molecules, the cells were washed once with 150 μL flow staining buffer, resuspended in 50 μL of BD Cytofix fixation buffer, and incubated for 30 minutes at RT. Cells were washed with 150 μL of flow staining buffer and resuspended in a final volume of 50 μL of flow staining buffer for analysis on an IQUE Screener plus instrument (Intellicyt, Albuquerque, N. Mex.). […] The IC50 values were calculated using non-linear regression analysis, sigmoidal dose-response using GraphPad Prism (version 5.0) software.
# [3] = tested on: KMS12-PE BCMA-expressing myeloma cell line co-cultured with T-cells; assay: CC-93269-induced cytokine secretion, T-cell co-culture with KMS12-PE; settings: 1 μM DEX vs DMSO control, highest concentration of CC-93269, 72 hours, 3 donors
# [4] = tested on: H929 BCMA-expressing myeloma cell line co-cultured with T-cells; assay: CC-93269-induced cytokine secretion, T-cell co-culture with H929; settings: 1 μM DEX vs DMSO control, highest concentration of CC-93269, 72 hours, 3 donors
# [5] = tested on: SKMM2 BCMA-expressing myeloma cell line co-cultured with T-cells; assay: CC-93269-induced cytokine secretion, T-cell co-culture with SKMM2; settings: 1 μM DEX vs DMSO control, highest concentration of CC-93269, 72 hours, 3 donors
smiles,measurement,setting,value
"C[C@@H]1C[C@H]2[C@@H]3CCC4=CC(=O)C=C[C@]4(C)[C@@]3(F)[C@@H](O)C[C@]2(C)[C@@]1(O)C(=O)CO [Dexamethasone, dexamethasone]","% Reduction of CC-93269-induced IL-2 secretion, Mean",[1],57.6%
same,"% Reduction of CC-93269-induced TNF-α secretion, Mean",[1],50.3%
same,lowering of CC-93269-mediated release of IL-2,[2],48.3-74.1%
same,lowering of CC-93269-mediated release of TNF-α,[2],46.3-61.8%
same,effect of dexamethasone on CC-93269-induced redirected lysis / cytotoxic activity,BCMA+ tumour cell lines,minimally affected
same,effect of dexamethasone on CC-93269-induced redirected lysis / cytotoxic activity,BCMA+ tumour cell lines; listed as dexamethasone,minimal suppressive impact
same,"% Reduction of CC-93269-induced IL-2 secretion, Mean",[3],48.3%
same,"% Reduction of CC-93269-induced TNF-α secretion, Mean",[3],53.9%
same,"% Reduction of CC-93269-induced IL-2 secretion, Mean",[4],74.1%
same,"% Reduction of CC-93269-induced TNF-α secretion, Mean",[4],61.8%
same,"% Reduction of CC-93269-induced IL-2 secretion, Mean",[5],56.5%
same,"% Reduction of CC-93269-induced TNF-α secretion, Mean",[5],46.3%
